ChEMBL document CHEMBL3885881, “DrugMatrix”

Species on record: Rattus norvegicus
Assay: DrugMatrix - Regimen: Daily Repeat
Format: toxicity, organism-based, Sprague-Dawley
Design: regimen Daily Repeat, gender Male, age 6-8 weeks
Settings: in vivo, po, route oral GAVAGE, vehicle 100 % WATER; for ABSOLUTE BASOPHIL / ABSOLUTE EOSINOPHIL / ABSOLUTE LYMPHOCYTE / ABSOLUTE MONOCYTE / ABSOLUTE SEGMENTED NEUTROPHIL / BASOPHIL / EOSINOPHIL / ERYTHROCYTE COUNT / HEMATOCRIT / HEMOGLOBIN / LEUKOCYTE COUNT / LYMPHOCYTE / MEAN CORPUSCULAR HEMOGLOBIN / MEAN CORPUSCULAR HEMOGLOBIN CONCENTRATION / MEAN CORPUSCULAR VOLUME / MONOCYTE / NEUTROPHIL / NUCLEATED RED BLOOD CELLS / PLATELET COUNT: tissue Blood; for ALANINE AMINOTRANSFERASE / ALBUMIN / ALKALINE PHOSPHATASE / ASPARTATE AMINOTRANSFERASE / BLOOD UREA NITROGEN / CARBON DIOXIDE / CHLORIDE / CHOLESTEROL / CREATINE PHOSPHOKINASE / CREATININE / GLUCOSE / LACTATE DEHYDROGENASE / LIPASE / PHOSPHORUS / POTASSIUM / SODIUM / TOTAL BILIRUBIN / TOTAL PROTEIN / URIC ACID: tissue Plasma
[1] = 0 mg/kg, 72 h, dose level Control, time 3 day
[2] = 0 mg/kg, 120 h, dose level Control, time 5 day
[3] = 10 mg/kg, 72 h, dose level Low, time 3 day

SMILES: NNc1nncc2ccccc12 [HYDRALAZINE]
- ABSOLUTE BASOPHIL [1]: 0 CELLS/uL
- ABSOLUTE EOSINOPHIL [1]: 20.17 CELLS/uL
- ABSOLUTE LYMPHOCYTE [1]: 12371.67 CELLS/uL
- ABSOLUTE MONOCYTE [1]: 166 CELLS/uL
- ABSOLUTE SEGMENTED NEUTROPHIL [1]: 1292.17 CELLS/uL
- BASOPHIL [1]: 0%
- EOSINOPHIL [1]: 0.17%
- ERYTHROCYTE COUNT [1]: 5.46 x10E6/uL
- HEMATOCRIT [1]: 34.38%
- HEMOGLOBIN [1]: 13.32 G/DL
- LEUKOCYTE COUNT [1]: 13.85 x10E3/uL
- LYMPHOCYTE [1]: 88.5%
- MEAN CORPUSCULAR HEMOGLOBIN [1]: 24.42 pg
- MEAN CORPUSCULAR HEMOGLOBIN CONCENTRATION [1]: 38.7 G/DL
- MEAN CORPUSCULAR VOLUME [1]: 63.07 fL
- MONOCYTE [1]: 1.17%
- NEUTROPHIL [1]: 10.17%
- NUCLEATED RED BLOOD CELLS [1]: 0.17 /100WBC
- PLATELET COUNT [1]: 1193.5 x10E3/uL
- ALANINE AMINOTRANSFERASE [1]: 54.5 u/L
- ALBUMIN [1]: 4.02 G/DL
- ALKALINE PHOSPHATASE [1]: 346.5 u/L
- ASPARTATE AMINOTRANSFERASE [1]: 103.17 u/L
- BLOOD UREA NITROGEN [1]: 16.5 mg/dL
- CARBON DIOXIDE [1]: 29.83 mmol/L
- CHLORIDE [1]: 99.5 MEQ/L
- CHOLESTEROL [1]: 72.5 mg/dL
- CREATINE PHOSPHOKINASE [1]: 532.5 u/L
- CREATININE [1]: 0.18 mg/dL
- GLUCOSE [1]: 168.5 mg/dL
- LACTATE DEHYDROGENASE [1]: 536.5 u/L
- LIPASE [1]: 11.17 u/L
- PHOSPHORUS [1]: 11.48 mg/dL
- POTASSIUM [1]: 5.95 MEQ/L
- SODIUM [1]: 140.5 MEQ/L
- TOTAL BILIRUBIN [1]: 0.18 mg/dL
- TOTAL PROTEIN [1]: 5.77 G/DL
- URIC ACID [1]: 1.42 mg/dL
- ABSOLUTE BASOPHIL [2]: 0 CELLS/uL
- ABSOLUTE EOSINOPHIL [2]: 22.83 CELLS/uL
- ABSOLUTE LYMPHOCYTE [2]: 12202.83 CELLS/uL
- ABSOLUTE MONOCYTE [2]: 158 CELLS/uL
- ABSOLUTE SEGMENTED NEUTROPHIL [2]: 1283 CELLS/uL
- BASOPHIL [2]: 0%
- EOSINOPHIL [2]: 0.17%
- ERYTHROCYTE COUNT [2]: 5.88 x10E6/uL
- HEMATOCRIT [2]: 36.62%
- HEMOGLOBIN [2]: 14.07 G/DL
- LEUKOCYTE COUNT [2]: 13.67 x10E3/uL
- LYMPHOCYTE [2]: 89.5%
- MEAN CORPUSCULAR HEMOGLOBIN [2]: 23.95 pg
- MEAN CORPUSCULAR HEMOGLOBIN CONCENTRATION [2]: 38.43 G/DL
- MEAN CORPUSCULAR VOLUME [2]: 62.28 fL
- MONOCYTE [2]: 1.17%
- NEUTROPHIL [2]: 9.17%
- NUCLEATED RED BLOOD CELLS [2]: 0.17 /100WBC
- PLATELET COUNT [2]: 1198 x10E3/uL
- ALANINE AMINOTRANSFERASE [2]: 51 u/L
- ALBUMIN [2]: 4.3 G/DL
- ALKALINE PHOSPHATASE [2]: 343 u/L
- ASPARTATE AMINOTRANSFERASE [2]: 89.83 u/L
- BLOOD UREA NITROGEN [2]: 17.67 mg/dL
- CARBON DIOXIDE [2]: 27.17 mmol/L
- CHLORIDE [2]: 98.33 MEQ/L
- CHOLESTEROL [2]: 82.5 mg/dL
- CREATINE PHOSPHOKINASE [2]: 533.33 u/L
- CREATININE [2]: 0.18 mg/dL
- GLUCOSE [2]: 152.67 mg/dL
- LACTATE DEHYDROGENASE [2]: 220.33 u/L
- LIPASE [2]: 11.5 u/L
- PHOSPHORUS [2]: 11.25 mg/dL
- POTASSIUM [2]: 6.29 MEQ/L
- SODIUM [2]: 140.53 MEQ/L
- TOTAL BILIRUBIN [2]: 0.22 mg/dL
- TOTAL PROTEIN [2]: 6.12 G/DL
- URIC ACID [2]: 1.42 mg/dL
- ABSOLUTE BASOPHIL [3]: 0 CELLS/uL
- ABSOLUTE EOSINOPHIL [3]: 33.33 CELLS/uL
- ABSOLUTE LYMPHOCYTE [3]: 12179.67 CELLS/uL
- ABSOLUTE MONOCYTE [3]: 152 CELLS/uL
- ABSOLUTE SEGMENTED NEUTROPHIL [3]: 1268.33 CELLS/uL
- BASOPHIL [3]: 0%
- EOSINOPHIL [3]: 0.33%
- ERYTHROCYTE COUNT [3]: 5.03 x10E6/uL
- HEMATOCRIT [3]: 31.97%
- HEMOGLOBIN [3]: 12.87 G/DL
- LEUKOCYTE COUNT [3]: 13.63 x10E3/uL
- LYMPHOCYTE [3]: 89.67%
- MEAN CORPUSCULAR HEMOGLOBIN [3]: 25.6 pg
- MEAN CORPUSCULAR HEMOGLOBIN CONCENTRATION [3]: 40.27 G/DL
- MEAN CORPUSCULAR VOLUME [3]: 63.57 fL
- MONOCYTE [3]: 1%
- NEUTROPHIL [3]: 9%
- NUCLEATED RED BLOOD CELLS [3]: 0 /100WBC
- PLATELET COUNT [3]: 1225.67 x10E3/uL
- ALANINE AMINOTRANSFERASE [3]: 46.67 u/L
- ALBUMIN [3]: 3.87 G/DL
- ALKALINE PHOSPHATASE [3]: 333.67 u/L
- ASPARTATE AMINOTRANSFERASE [3]: 83.33 u/L
- BLOOD UREA NITROGEN [3]: 16 mg/dL
- CARBON DIOXIDE [3]: 30.33 mmol/L
- CHLORIDE [3]: 100.33 MEQ/L
- CHOLESTEROL [3]: 61.33 mg/dL
- CREATINE PHOSPHOKINASE [3]: 318 u/L
- CREATININE [3]: 0.15 mg/dL
- GLUCOSE [3]: 154 mg/dL
- LACTATE DEHYDROGENASE [3]: 304.33 u/L
- LIPASE [3]: 10.33 u/L
- PHOSPHORUS [3]: 11.37 mg/dL
- POTASSIUM [3]: 6.36 MEQ/L
- SODIUM [3]: 141.6 MEQ/L
- TOTAL BILIRUBIN [3]: 0.2 mg/dL
- TOTAL PROTEIN [3]: 5.7 G/DL
- URIC ACID [3]: 1.67 mg/dL
